Assay results: patent US20120059052A1, “PRENYLFLAVONOID FORMULATIONS” (BIOACTIVES, INC., priority 2005, published 2012)
One block for each molecule: values may come before it.

Experiments:
Cyp1A2 = target: T1, Cyp1A2 (Homo sapiens, UniProt P05177); conditions: cDNA-expressed human enzyme; cited from earlier work
T1 sequence (P05177 1-516): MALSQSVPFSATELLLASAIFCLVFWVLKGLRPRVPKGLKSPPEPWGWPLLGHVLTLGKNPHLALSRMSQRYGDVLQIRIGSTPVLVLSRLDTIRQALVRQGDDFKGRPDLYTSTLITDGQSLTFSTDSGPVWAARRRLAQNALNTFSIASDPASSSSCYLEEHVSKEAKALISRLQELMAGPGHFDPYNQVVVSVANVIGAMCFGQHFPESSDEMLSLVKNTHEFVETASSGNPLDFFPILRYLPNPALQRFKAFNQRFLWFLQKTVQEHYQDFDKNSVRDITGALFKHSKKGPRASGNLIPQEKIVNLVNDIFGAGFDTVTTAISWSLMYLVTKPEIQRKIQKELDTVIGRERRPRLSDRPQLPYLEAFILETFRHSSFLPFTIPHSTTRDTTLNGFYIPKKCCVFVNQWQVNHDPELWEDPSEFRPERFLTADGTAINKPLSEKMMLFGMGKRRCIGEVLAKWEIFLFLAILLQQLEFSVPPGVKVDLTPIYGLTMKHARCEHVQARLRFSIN

endothelial cells = endothelial cells invading collagen gel, capillary-like tubes; cited from earlier work
Cyp1A1 = target: T2, Cyp1A1 (Homo sapiens, UniProt P04798); conditions: cDNA-expressed human enzyme; cited from earlier work
T2 sequence (P04798 1-512): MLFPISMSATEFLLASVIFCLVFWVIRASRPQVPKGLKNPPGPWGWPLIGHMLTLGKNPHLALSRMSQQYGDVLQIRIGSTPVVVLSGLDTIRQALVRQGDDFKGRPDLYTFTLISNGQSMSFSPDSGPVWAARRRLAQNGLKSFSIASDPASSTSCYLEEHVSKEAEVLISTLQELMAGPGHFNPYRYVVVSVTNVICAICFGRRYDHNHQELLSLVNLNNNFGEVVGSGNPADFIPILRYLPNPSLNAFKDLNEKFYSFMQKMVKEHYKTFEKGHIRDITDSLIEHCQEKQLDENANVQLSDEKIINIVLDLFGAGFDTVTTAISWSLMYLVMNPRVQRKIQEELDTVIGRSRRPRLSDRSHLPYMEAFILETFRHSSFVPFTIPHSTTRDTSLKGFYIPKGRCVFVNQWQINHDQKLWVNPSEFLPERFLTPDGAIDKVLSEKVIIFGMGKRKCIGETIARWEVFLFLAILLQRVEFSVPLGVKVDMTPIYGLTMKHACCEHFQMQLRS

Cyp1B 1 = target: T3, Cyp1B 1 (Homo sapiens, UniProt Q16678); conditions: cDNA-expressed human enzyme; cited from earlier work
T3 sequence (Q16678 1-543): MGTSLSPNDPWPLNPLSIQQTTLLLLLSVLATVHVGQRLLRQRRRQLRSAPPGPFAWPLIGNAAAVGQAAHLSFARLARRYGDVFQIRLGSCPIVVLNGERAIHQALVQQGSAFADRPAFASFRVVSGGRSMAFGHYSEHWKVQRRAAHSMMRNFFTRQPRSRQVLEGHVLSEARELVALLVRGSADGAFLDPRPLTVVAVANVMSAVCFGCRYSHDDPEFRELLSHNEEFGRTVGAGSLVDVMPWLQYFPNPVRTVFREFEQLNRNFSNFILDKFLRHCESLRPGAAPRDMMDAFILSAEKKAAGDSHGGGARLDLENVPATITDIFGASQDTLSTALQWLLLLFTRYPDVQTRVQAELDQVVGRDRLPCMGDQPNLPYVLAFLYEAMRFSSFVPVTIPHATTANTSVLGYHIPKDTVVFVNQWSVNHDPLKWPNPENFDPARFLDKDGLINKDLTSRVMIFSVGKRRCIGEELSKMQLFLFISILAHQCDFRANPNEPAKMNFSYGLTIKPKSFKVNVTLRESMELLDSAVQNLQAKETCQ

constitutive COX-1 = target: T4, constitutive COX-1 (Ovis aries, UniProt P05979); conditions: read-out: IC50, inhibition of COX-1; cited from earlier work
T4 sequence (P05979 25-600): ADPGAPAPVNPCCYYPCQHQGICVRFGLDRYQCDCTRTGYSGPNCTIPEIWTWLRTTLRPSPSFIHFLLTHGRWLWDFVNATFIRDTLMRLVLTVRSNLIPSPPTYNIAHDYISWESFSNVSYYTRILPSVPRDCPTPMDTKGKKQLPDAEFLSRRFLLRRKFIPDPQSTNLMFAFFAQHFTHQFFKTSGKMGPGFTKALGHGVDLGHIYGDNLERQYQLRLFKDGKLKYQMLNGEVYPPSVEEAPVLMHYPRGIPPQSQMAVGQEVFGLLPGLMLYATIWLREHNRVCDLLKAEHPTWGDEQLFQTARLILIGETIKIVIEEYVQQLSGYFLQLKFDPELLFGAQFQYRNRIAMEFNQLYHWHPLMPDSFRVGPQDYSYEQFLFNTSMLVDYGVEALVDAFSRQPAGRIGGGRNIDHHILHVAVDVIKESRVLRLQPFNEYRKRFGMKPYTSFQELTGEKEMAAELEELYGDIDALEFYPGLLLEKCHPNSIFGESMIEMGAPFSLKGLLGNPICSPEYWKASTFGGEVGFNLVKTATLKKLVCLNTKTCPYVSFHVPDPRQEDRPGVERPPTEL

HepG2 cells = experiment: Incorporation of 14C-acetic acid into cholesterol in HepG2 cells; type: cell-based
Procedure: The incorporation of ^14C-acetic acid into cholesterol was examined in HepG2 cells. […] The IC50 was approximately 20 μM. In the same HepG2 cell assay system, atorvastatin (10 nM and 1 μM) inhibited acetate incorporation into cholesterol by 20% and 80% respectively.

Caco-2 cell monolayers [1] = experiment: Permeability across Caco-2 cell monolayers; type: in vitro ADME
Procedure: Percent Recovery=100×((Vr×Cr^final)+(Vd×Cd^final))/(Vd×C0)
• dCr/dt is the slope of the cumulative concentration in the receiver compartment versus time in μMs^−1. • Vr is the volume of the receiver compartment in cm^3. • Vd is the volume of the donor compartment in cm^3. • A is the area of the cell-free insert (1.13 cm^2 for 12-well Transwell). • Cr^final is the cumulative receiver concentration in μM at the end of the incubation period. • Cd^final is the concentration of the donor in μM at the end of the incubation period. • C0 is the initial concentration of the dosing solution in μM.
Each determination was performed in duplicate.

[2] = oral doses, animal; cited from earlier work
HMG-CoA reductase = target: T5, HMG-CoA reductase (Homo sapiens, UniProt P04035); experiment: HMG-CoA reductase assay in isolated liver microsomes; type: biochemical
T5 construct: from tissue; host or cells: liver microsomes
T5 sequence (P04035 1-888): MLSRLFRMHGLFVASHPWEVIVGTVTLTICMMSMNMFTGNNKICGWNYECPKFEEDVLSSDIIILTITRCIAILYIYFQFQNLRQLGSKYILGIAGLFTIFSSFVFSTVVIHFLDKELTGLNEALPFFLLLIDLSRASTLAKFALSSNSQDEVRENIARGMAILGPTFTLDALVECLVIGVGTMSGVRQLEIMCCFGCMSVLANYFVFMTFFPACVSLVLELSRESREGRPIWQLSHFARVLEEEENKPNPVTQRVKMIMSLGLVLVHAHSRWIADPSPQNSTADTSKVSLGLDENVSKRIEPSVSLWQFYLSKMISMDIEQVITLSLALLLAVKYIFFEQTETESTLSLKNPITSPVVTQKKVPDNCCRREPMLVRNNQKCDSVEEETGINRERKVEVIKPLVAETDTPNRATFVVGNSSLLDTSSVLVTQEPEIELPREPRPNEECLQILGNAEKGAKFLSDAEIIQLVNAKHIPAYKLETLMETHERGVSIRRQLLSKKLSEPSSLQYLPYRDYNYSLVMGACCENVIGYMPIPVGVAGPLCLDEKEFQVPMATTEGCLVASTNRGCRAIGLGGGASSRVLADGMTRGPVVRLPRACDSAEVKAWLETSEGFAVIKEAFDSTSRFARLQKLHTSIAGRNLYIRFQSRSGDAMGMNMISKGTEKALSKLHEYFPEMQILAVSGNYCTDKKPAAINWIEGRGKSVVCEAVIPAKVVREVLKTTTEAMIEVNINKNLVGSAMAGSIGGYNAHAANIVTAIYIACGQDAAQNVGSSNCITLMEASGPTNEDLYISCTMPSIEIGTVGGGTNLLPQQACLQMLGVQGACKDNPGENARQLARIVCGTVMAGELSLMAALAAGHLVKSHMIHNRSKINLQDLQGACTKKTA
Procedure: HMG-CoA reductase assays were performed in which increasing concentrations of xanthohumol (1 μM to 100 μM) were added to isolated liver microsomes. Xanthohumol had no effect on HMG-CoA reductase activity. As a positive control, atorvastatin (10 nM and 1 μM) was tested in the same assay, which inhibited reductase activity by 58% and 87% respectively. The protocol followed was as published in Telford et al. ATVB 2002; 22: 1884-1891.

inducible COX-2 = target: T6, inducible COX-2 (Homo sapiens, UniProt P35354); conditions: read-out: IC50, inhibition of COX-2; cited from earlier work
T6 sequence (P35354 18-604): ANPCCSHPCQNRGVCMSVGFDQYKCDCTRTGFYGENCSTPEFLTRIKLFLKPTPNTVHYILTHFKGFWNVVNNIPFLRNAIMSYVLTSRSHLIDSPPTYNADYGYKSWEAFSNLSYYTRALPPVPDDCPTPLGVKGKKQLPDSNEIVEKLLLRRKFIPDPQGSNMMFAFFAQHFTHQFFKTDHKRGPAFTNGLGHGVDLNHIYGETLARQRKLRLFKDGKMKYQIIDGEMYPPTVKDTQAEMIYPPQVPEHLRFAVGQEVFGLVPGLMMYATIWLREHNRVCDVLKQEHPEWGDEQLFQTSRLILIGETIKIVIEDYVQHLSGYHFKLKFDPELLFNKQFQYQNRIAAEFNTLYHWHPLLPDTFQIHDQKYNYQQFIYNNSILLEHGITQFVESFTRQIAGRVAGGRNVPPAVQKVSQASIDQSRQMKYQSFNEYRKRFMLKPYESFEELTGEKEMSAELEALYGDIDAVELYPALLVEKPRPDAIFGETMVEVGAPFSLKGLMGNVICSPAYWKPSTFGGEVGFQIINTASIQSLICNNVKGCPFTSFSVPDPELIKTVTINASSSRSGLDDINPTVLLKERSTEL

[3] = cited from earlier work
Caco-2 cell monolayers [4] = experiment: Caco-2 plate certification with control compounds; type: in vitro ADME; conditions: TW12, passage 63, age 22 days
Procedure: To test the permeability of xanthohumol across Caco-2 cell monolayers, Caco-2 cell monolayers were grown to confluence on collagen-coated, microporous, polycarbonate membranes in 12-well Costar Transwell® plates. Details of the plates and their certification are shown below in Table 3. The test article was also the aqueous xanthohumol formulation, and the dosing concentration was 2 μM in the assay buffer (HBSSg) as in the previous example. Cell monolayers were dosed on the apical side (A-to-B) or basolateral side (B-to-A) and incubated at 37° C. with 5% CO2 in a humidified incubator. Samples were taken from the donor chamber at 120 minutes, and samples from the receiver chamber were collected at 60 and 120 minutes. Each determination was performed in duplicate. Lucifer yellow permeability was also measured for each monolayer after being subjected to the test article to ensure no damage was inflicted to the cell monolayers during the permeability experiment. All samples were assayed for Xanthohumol by LC/MS/MS using electrospray ionization. The apparent permeability (Papp), and percent recovery were calculated as described above.

[5] = human, Caco-2, 120 min, 2 μM, pH 7.4

Molecule: CC(C)=CCc1c(O)cc(O)c2c1O[C@H](c1ccc(O)cc1)CC2=O [8-prenylnaringenin]
Inhibition of Cyp1A2 (Cyp1A2): strongly inhibit | Effect on angiogenesis in vitro (endothelial cells): inhibits angiogenesis | Inhibition of Cyp1A1 (Cyp1A1): strongly inhibit | Inhibition of Cyp1B1 (Cyp1B 1): strongly inhibit

IC50 (HepG2 cells; Homo sapiens, read-out: IC50, cholesterol synthesis): ~20 µM | Significant Efflux (Caco-2 cell monolayers [1]; Caco-2): No | Papp, Average (Caco-2 cell monolayers [1]; [5]): 1.77 10^−6 cm/s | Papp, Rep. 1 (Caco-2 cell monolayers [1]; [5]): 0.94 10^−6 cm/s | Effect on HMG-CoA reductase activity (HMG-CoA reductase; 1 μM to 100 μM, isolated liver microsomes): no effect
Molecule: COc1cc(O)c(CC=C(C)C)c(O)c1C(=O)/C=C/c1ccc(O)cc1 [Xanthohumol, xanthohumol]
IC50 (constitutive COX-1): 17 µM | Inhibition of Cyp1A2 (Cyp1A2): strongly inhibit | Inhibition of Cyp1A1 (Cyp1A1): strongly inhibit | Cholesterol synthesis inhibition (HepG2 cells; 0.5 μM to 100 μM): inhibited in a dose-responsive manner | Effect on incorporation of 14C-acetic acid into cholesterol (HepG2 cells; concentrations below 500 nM): No affect | Bioavailability [2]: very low bioavailability | IC50 (inducible COX-2): 42 µM | Inhibition of Cyp1B1 (Cyp1B 1): strongly inhibit | Solubility in water [3]: virtually insoluble

inhibition at 0.01 µM (HMG-CoA reductase; 10 nM): 58% | inhibition at 1 µM (HMG-CoA reductase; 1 μM): 87%
Molecule: CC(C)c1c(C(=O)Nc2ccccc2)c(-c2ccccc2)c(-c2ccc(F)cc2)n1CC[C@@H](O)C[C@@H](O)CC(=O)O [atorvastatin, reference compound]
inhibition at 0.01 µM (HepG2 cells; Homo sapiens, 10 nM, read-out: Inhibition of acetate incorporation into cholesterol): 20% | inhibition at 1 µM (HepG2 cells; Homo sapiens, 1 μM, read-out: Inhibition of acetate incorporation into cholesterol): 80%

Molecule: COc1cc(O)c(CC=C(C)C)c2c1C(=O)CC(c1ccc(O)cc1)O2 (stereo not drawn) [isoxanthohumol]
Inhibition of Cyp1A2 (Cyp1A2): strongly inhibit | Inhibition of Cyp1A1 (Cyp1A1): strongly inhibit | Inhibition of Cyp1B1 (Cyp1B 1): strongly inhibit

Lucifer yellow Papp, post-experiment integrity control (Caco-2 cell monolayers [1]; all monolayers, after exposure to test article): < 0.8 ×10⁻⁶ cm/s | Papp (Caco-2 cell monolayers [4]): 0.13 ×10⁻⁶ cm/s
Molecule: Lucifer Yellow [reference compound]
